# Source: patent US20150080380A1, “Therapeutic Uses” (GLAXOSMITHKLINE INTELLECTUAL PROPERTY DEVELOPMENT LIMITED, priority 2012, published 2015)
# Key:
# [1] = biological target: T1, human recombinant H3 receptor (Homo sapiens, UniProt Q9Y5N1); test: GTPγS binding assay (basal binding, HEK-293-GαO membranes); assay type: biochemical; conditions: 100 nM-0.001 nM, absence of H3R agonist, 3 independent experiments; read-out: pEC50, inhibition of basal GTPγS binding (converted)
# T1 construct: host or cells: HEK-293-GαO cells transduced with BacMam virus; membranes prepared
# Description: The effect of Example compound 1 on basal GTPγS binding to the H3R receptor was determined in the GTPγS binding assay.
# Human embryonic kidney 293 cells stably expressing G protein GαO (HEK-293-GO) were maintained in minimum essential medium (MEM) supplemented with Earle's salts, 2 mM L-glutamine, […] geneticin and 10% foetal bovine serum at 37-8° C., 5% CO2 in a humidified environment. Exponentially growing cells were infected with BacMam virus encoding the human recombinant H3 receptor (Biocat: Virus 96801) as follows. Cells were detached from flasks in PBS and collected by centrifugation at 200×g for 5 min at room temperature. […]
# Cell membranes were diluted to ˜1 mg/ml in assay buffer (20 mM HEPES, 100 mM NaCl, 10 mM MgCl2, pH 7.4) and incubated with wheat germ agglutinin scintillation proximity assay (SPA) beads (Amersham Biosciences) for 45 min, after which GDP ([…]) was added. […] Non-specific binding was determined by the inclusion of 0.6 mM GTPγS. […] Filters were washed twice with 4 ml ice-cold water and bound […] on the filters was measured by scintillation counting on a Wallac 1450 Microbeta Trilux counter.
# The data was analyzed and presented as fold change of the number of the vehicle control well (DMSO). […]
# [2] = test system: remyelination in cuprizone/rapamycin-induced demyelination; test: Mouse cuprizone/rapamycin-induced demyelination model (Black-gold II staining); assay type: in vivo, C57BL/6 mice; conditions: 30 mg/kg orally b.i.d. 9 days, n=7, P<0.05
# Description: The ability of Example compound 2 to enhance in vivo remyelination was determined with the mouse cuprizone/rapamycin-induced demyelination model.
# The cuprizone plus rapamycin model was conducted with the protocol as follows: rapamycin was dissolved in 100% ethanol and stored at −20° C. until use. Immediately before injection, the rapamycin was diluted in vehicle solution to get a final concentration in 5% PEG-400, 5% Tween 80, and 4% ethanol. The C57BL/6 mice at age of 8 weeks were fed with powder mouse food mixed freshly with 0.2% cuprizone (w/w) and received daily intraperitoneal injection of rapamycin (10 mg/kg body weight) for 5 weeks to induce demyelination, then animals were allowed to recover (removal of cuprizone from the diet and rapamycin injection) and administrated with Example compound 2, at 30 mg/kg body weight orally, b.i.d. for an additional 9 days prior to sacrifice. The brain samples were collected for pathologic analysis. […]
# Mice were deeply anesthetized and quickly perfused with 0.9% saline via the left cardiac ventricle to drain out blood. […] The sections were monitored to determine the extent of staining. […]
# Image-Pro 6.3 software (Media Cybernetics, USA) was used for subsequent quantitative evaluation. […] For measurement of mean density, areas and IOD in central corpus callosum or cortex were calculated after all digital images were set under the same colour range. […]
# T1 sequence (Q9Y5N1 whole entry): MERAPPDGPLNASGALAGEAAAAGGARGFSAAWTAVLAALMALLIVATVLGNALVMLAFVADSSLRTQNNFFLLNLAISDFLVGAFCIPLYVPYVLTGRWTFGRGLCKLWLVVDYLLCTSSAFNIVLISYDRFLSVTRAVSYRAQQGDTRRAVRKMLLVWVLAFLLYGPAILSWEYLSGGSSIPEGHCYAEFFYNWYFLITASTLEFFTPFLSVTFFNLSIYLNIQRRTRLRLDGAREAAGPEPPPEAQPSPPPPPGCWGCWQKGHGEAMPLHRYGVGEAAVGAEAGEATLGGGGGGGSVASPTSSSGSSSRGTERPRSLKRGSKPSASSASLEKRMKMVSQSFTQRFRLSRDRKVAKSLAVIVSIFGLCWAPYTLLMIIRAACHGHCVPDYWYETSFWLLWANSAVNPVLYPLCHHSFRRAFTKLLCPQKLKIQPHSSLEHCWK
SMILES,EC50 [1],"mean intensity of Black-gold II staining, forebrain corpus callosum ([2]; vehicle 14.65%)","mean intensity of Black-gold II staining, forebrain cortex ([2]; vehicle 40.79%)"
"O=C1CCCN1c1ccc(Oc2ccc3c(c2)CCN(C2CCC2)CC3)nc1 [Example compound 1, 1-{6-[(3-cyclobutyl-2,3,4,5-tetrahydro-1H-3-benzazepin-7-yl)oxy]-3-pyridinyl}-2-pyrrolidinone]",0.112 nM,–,–
"c1cc2c(cc1-c1noc(CC3CCN(C4CCC4)CC3)n1)OCO2 [Example compound 2, 3-(benzo[d][1,3]dioxol-5-yl)-5-((1-cyclobutylpiperidin-4-yl)methyl)-1,2,4-oxadiazole]",–,27.68±5.44%,60.05±6.28%
